Assay results taken from patent US20090325202A1, “Methods for Developing and Assessing Therapeutic Agents” (priority 2006, published 2009).

Key:
p70S6K = experiment: IHC staining of phospho-p70S6K in resected xenograft tumor tissue; type: in vivo, human
Protocol: At the completion of the treatment course, xenografted tissues were harvested and fixed in formalin for 24 hrs. The fixed tissues were paraffin-embedded and cut in 0.5 micron sections onto positively-charged glass slides for immunohistochemical (IHC) labeling. Analysis was performed to determine the IHC pharmacodynamic effects of the drug in the targeted pathway. For IHC staining, slides were deparaffinized and rehydrated in graded concentrations of alcohol by standard techniques before antigen retrieval in citrate buffer pH 6.0 for 20 minutes. Next, the slides were cooled for 20 minutes before washing in 1× TBST (Dako Corp. Carpinteria, Calif.). All staining was performed using a DAKO Autostainer at room temperature. Slides were incubated in 3% H2O2 for 10 minutes, followed by the appropriate dilution of primary antibody for 60 minutes. Tris-HCl (0.2M, pH 7.5) (Quality Biological, Inc, Gaithersburg, Md.) was used as the antibody diluent solution. Dilutions of antibodies used were as follows: Total ERK1/2 (Cell Signaling Technology, Beverly, Mass.) 1:25, p-ERK1/2 (Thr202/Tyr204) (Cell Signaling Technology, Beverly, Mass.) 1:50, p70S6K (Santa Cruz Biotechnology) 1:50, and pp70S6K (Cell Signaling Technology, Beverly, Mass.) 1:50. […]

S6 ribosomal protein [1] = experiment: In vivo tumor FNAB Western blot, S6 ribosomal protein phosphorylation (Example 5); conditions: tumor samples of treated animals compared to control
Protocol: Fine needle aspiration yielded up to 200 μg of total protein as determined using the BCA protein assay (Pierce) and bovine serum albumin as a standard. Protein extracts (15 μg) were added to a loading buffer boiled and electrophoresed on a 7 or 10% (w/v) polyacrylamide gel in the presence of SDS. Molecular weights of the immunoreactive proteins were estimated based upon the relative migration with colored molecular weight protein markers (Amersham Pharmacia Biotech). After electrotransfer to Immobilon-P membranes (Millipore), membranes were blocked at room temperature using SuperBlock (Pierce,#37516) for one hour. The primary antibodies were diluted at 1:1000 in 1:10 dilution of SuperBlock solution and the membranes were incubated with primary antibodies overnight at 4° C. Next day, the membranes were washed and incubated for 1 h at room temperature with horseradish peroxidase (HRP)-conjugated secondary antibodies, rabbit IgG-HRP (SC-2004), or mouse IgG-HRP (SC-2005) from Santa Cruz Biotechnology at a final dilution of 1:3000. After washing three times with Tris-buffered saline antibody binding was visualized using enhanced chemiluminescence (SuperSignal West Pico, Pierce) and autoradiography.
The expression levels and the phosphorylation status of EGFR, ERK1/2 and S6 ribosomal protein were determined on Western blot analysis.

S6 ribosomal protein [2] = experiment: Panc 265 xenograft FNAB cells treated ex vivo, S6 ribosomal protein phosphorylation; type: cell-based, human; conditions: Panc 265 FNAB cells; CCI-779 1 uM; 6 hours
Protocol: To obtain cancer cells, each animal tumor was sampled as described above. After collection of tumor FNAB samples, xenograft animals were subsequently treated with ZD1839 or CCI-779 for 28 days and tumor volumes were determined as described above. At day 7 of therapy, AD/DQ slides were prepared from tumor FNAB samples to retrospectively correlate the results of in vivo and ex vivo chemosentitivty tests from the same xenograft animal.
To determine viability of tumor cells obtained by FNAB, trypan blue dye exclusion assay was performed. The viability of tumor cells obtained by tumor FNAB from control animals was over 95%. Approximately 75,000 tumor cells were seeded into each well of a 6-well polypropylene microplate. Cells were treated in duplicates with vehicle (control) or with ZD1839 (5 uM) or CCI-779 (1 uM) in a humidified 5% CO2 incubator at 37° C. for different periods to determine the optimal treatment time to analyze drug effects.
After the treatment cells were collected, protein extracts were prepared and Western blot analysis was performed as described above. The ex vivo effect of ZD 1839 and CCI-779 on phosphorylation of ERK1/2 or S6 ribosomal proteins, respectively, was correlated with the in vivo data gathered from the FNAB smears prepared at day 7 of treatment.

With `CO[C@H]1C[C@@H]2CC[C@@H](C)[C@@](O)(O2)C(=O)C(=O)N2CCCC[C@H]2C(=O)O[C@H]([C@H](C)C[C@@H]2CC[C@@H](OC(=O)C(C)(CO)CO)[C@H](OC)C2)CC(=O)[C@H](C)/C=C(\C)[C@@H](O)[C@@H](OC)C(=O)[C@H](C)C[C@H](C)/C=C/C=C/C=C/1C` [temsirolimus, Temsirolimus] the “IHC staining for phosphorylated p70S6K” value (p70S6K; tumor A194, in vivo treated with temsirolimus) was “no effect”, the “IHC staining for phosphorylated p70S6K” value (p70S6K; tumor A198, in vivo treated with temsirolimus) was “strongly decreased staining” and the “S6 ribosomal protein phosphorylation in vivo” value (S6 ribosomal protein [1]) was “effectively blocked S6 ribosomal protein phosphorylation”. The “activity (phosphorylation) of target protein S6 ribosomal protein ex vivo” value (S6 ribosomal protein [2]) was “successfully inhibited the activity of its target protein”.
